Data published in patent US4279887A, “Amides useful as brain imaging agents” (Medi-Physics, Inc., priority 1978, dated 1981).
Like-named read-outs stand apart in the source and are kept apart here.

What was measured:
[1] = Bioassay of I-123-labeled compounds: organ distribution of activity 5 minutes after tail vein injection; assay type: in vivo, Female Sprague-Dawley rats; conditions: rat; for Percent Dose in Stomach / Ratio Brain/Blood / Ratio Heart/Blood: 5 min
Protocol: Bioassays were performed utilizing compounds from the foregoing examples labeled with I-123 in accordance with the method described in Example 18. Female Sprague-Dawley rats weighing approximately 150 g were anesthetized with sodium pentobarbital and were injected in a tail vein with from 0.05 to 1.0 mCi (in a volume of 0.2 to 0.5 ml) of the I-123-labeled compound. Two specimens were utilized for each test.
The animals were sacrificed at 5 minutes post injection, the tails discarded and the amount of activity in various organs determined. Each organ was counted at a standardized geometry with a thallium iodide-activated sodium iodide crystal scintillation counter adjusted for the 159 keV emission of I-123. The organs were also weighed to one thousandth of a gram and the activity calculated as a percent of administered dose per gram organ weight.
The ratio of brain-to-blood activity was calculated as a percent of administered dose per gram. The important determinations are the amount of activity in the brain and the brain/blood ratio. The amount of activity in the stomach is related to loss of the I-123-label. For comparative purposes, I-123 antipyrine was utilized as a standard.

[2] = I-123 labeled, cited from earlier work
[3] = in vivo, iv, Percent Dose/g. at 5 min., Blood
[4] = in vivo, iv, Percent Dose/g. at 5 min., Brain
[5] = in vivo, iv, Percent Dose/g. at 5 min., Heart
[6] = i.v., ratio of percent dose per gram
[7] = i.v., stomach activity is related to loss of the I-123 label

| Structure (SMILES) | Percent Dose in Stomach ([1]; in vivo, iv) | Ratio Brain/Blood ([1]; in vivo, iv) | Ratio Heart/Blood ([1]; in vivo, iv) | tissue uptake at 5 min [1, 3] | tissue uptake at 5 min [1, 4] | tissue uptake at 5 min [1, 5] | Ratio Brain/Blood [1, 6] | Ratio Heart/Blood [1, 6] | Percent Dose in Stomach [1, 7] | tissue uptake at 5 min ([1]; in vivo, iv, i.v. tail vein, 5 min post injection, blood, I-123 label, read-out: Percent Dose/g. at 5 min., Blood) | tissue uptake at 5 min ([1]; in vivo, iv, i.v. tail vein, 5 min post injection, brain, I-123 label, read-out: Percent Dose/g. at 5 min., Brain) | tissue uptake at 5 min ([1]; in vivo, iv, i.v. tail vein, 5 min post injection, heart, I-123 label, read-out: Percent Dose/g. at 5 min., Heart) | concentration in the brain ([2]; literature) | in vivo deiodination ([2]; literature) | loss of the iodine label in the brain ([2]; prior art agent) |
| --- | --- | --- | --- | --- | --- | --- | --- | --- | --- | --- | --- | --- | --- | --- | --- |
| O=C(NO)c1ccccc1[123I] [Example 14, o-iodobenzohydramic acid] | 0.96 Percent Dose | 0.57 | 0.99 | 0.95 %ID/g | 0.54 %ID/g | 0.94 %ID/g | – | – | – | – | – | – | – | – | – |
| NC(=O)CNC(=O)c1ccccc1[123I] [Example 12, o-iodohippuramide] | 0.83 Percent Dose | 1.10 | 1.31 | 0.84 %ID/g | 0.92 %ID/g | 0.96 %ID/g | – | – | – | – | – | – | – | – | – |
| O=C(Nc1ccccc1)c1ccccc1[123I] [Example 6, o-iodobenzanilide] | – | – | – | – | – | – | 0.90 | 2.34 | 1.66 Percent Dose | 0.93 %ID/g | 0.84 %ID/g | 2.18 %ID/g | – | – | – |
| Cc1cccc(C)c1NC(=O)c1ccccc1[123I] [Example 7, o-iodobenz-2,6-xylidide] | 0.82 Percent Dose | 0.87 | 1.43 | 0.69 %ID/g | 0.6 %ID/g | 0.99 %ID/g | – | – | – | – | – | – | – | – | – |
| O=C(NCc1ccccc1)c1ccccc1[123I] [Example 8, N-benzyl-o-iodobenzamide] | 0.88 Percent Dose | 1.00 | 2.26 | 0.68 %ID/g | 0.68 %ID/g | 1.54 %ID/g | – | – | – | – | – | – | – | – | – |
| O=C(NCCc1ccccc1)c1ccccc1[123I] [Example 9, N-phenethyl-o-iodobenzamide] | 0.82 Percent Dose | 1.28 | 1.70 | 0.43 %ID/g | 0.54 %ID/g | 0.73 %ID/g | – | – | – | – | – | – | – | – | – |
| CN(C)C(=O)c1ccccc1[123I] [Example 10, N, N-dimethyl-o-iodobenzamide] | 0.93 Percent Dose | 0.22 | 0.72 | 2.15 %ID/g | 0.48 %ID/g | 1.54 %ID/g | – | – | – | – | – | – | – | – | – |
| CNC(=O)c1ccccc1[123I] [Example 1, N-methyl-o-iodobenzamide] | 0.94 Percent Dose | 1.21 | 1.28 | 0.86 %ID/g | 1.04 %ID/g | 1.1 %ID/g | – | – | – | – | – | – | – | – | – |
| O=C(NNc1ccccc1)c1ccccc1[123I] [Example 13, o-iodobenzphenylhydrazide] | 1.10 Percent Dose | 0.20 | 0.55 | 1.99 %ID/g | 0.39 %ID/g | 1.09 %ID/g | – | – | – | – | – | – | – | – | – |
| Cc1c([123I])c(=O)n(-c2ccccc2)n1C [I^123 -iodoantipyrine, 4-iodoantipyrine] | – | – | – | – | – | – | – | – | 2.32 Percent Dose | – | – | – | suboptimal concentration in the brain | rapid in vivo deiodination | significant loss of the iodine label in the brain |
| CCCCCCCCCCCCCCCCCCNC(=O)c1ccccc1[123I] [Example 5, N-octadecyl-o-iodobenzamide] | 0.20 Percent Dose | 0.10 | 0.92 | 0.91 %ID/g | 0.09 %ID/g | 0.84 %ID/g | – | – | – | – | – | – | – | – | – |
| CCCCCCNC(=O)c1ccccc1[123I] [Example 3, N-hexyl-o-iodobenzamide] | 0.86 Percent Dose | 1.05 | 1.21 | 0.56 %ID/g | 0.59 %ID/g | 1.04 %ID/g | – | – | – | – | – | – | – | – | – |
| NC(=O)c1ccccc1[123I] [Example 2, o-iodobenzamide] | 0.93 Percent Dose | 1.28 | 1.32 | 0.69 %ID/g | 0.88 %ID/g | 0.91 %ID/g | – | – | – | – | – | – | – | – | – |
